Activity calls are given as the source filed them.
Tests used:
[1] = target: T1, Sentrin-specific protease 8 (Homo sapiens, UniProt Q96LD8); assay type: functional;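 further: luminescence read-out of SENP8 inhibition, dose-response confirmation following an ultra-high-throughput screen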
T1 sequence (Q96LD8 whole entry): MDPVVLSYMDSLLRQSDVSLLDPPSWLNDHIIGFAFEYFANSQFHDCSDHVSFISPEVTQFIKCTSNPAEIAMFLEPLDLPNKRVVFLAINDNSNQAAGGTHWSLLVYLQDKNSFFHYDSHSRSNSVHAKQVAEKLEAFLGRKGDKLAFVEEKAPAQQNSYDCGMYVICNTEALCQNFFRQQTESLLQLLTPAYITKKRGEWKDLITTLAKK

[2] = target: T2, Sentrin-specific protease 7 (Homo sapiens, UniProt Q9BQF6); assay type: functional;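 further: Luminescence-based dose-response confirmation of ultra-high-throughput screening hits, measuring inhibition of SENP7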
T2 sequence (Q9BQF6 whole entry): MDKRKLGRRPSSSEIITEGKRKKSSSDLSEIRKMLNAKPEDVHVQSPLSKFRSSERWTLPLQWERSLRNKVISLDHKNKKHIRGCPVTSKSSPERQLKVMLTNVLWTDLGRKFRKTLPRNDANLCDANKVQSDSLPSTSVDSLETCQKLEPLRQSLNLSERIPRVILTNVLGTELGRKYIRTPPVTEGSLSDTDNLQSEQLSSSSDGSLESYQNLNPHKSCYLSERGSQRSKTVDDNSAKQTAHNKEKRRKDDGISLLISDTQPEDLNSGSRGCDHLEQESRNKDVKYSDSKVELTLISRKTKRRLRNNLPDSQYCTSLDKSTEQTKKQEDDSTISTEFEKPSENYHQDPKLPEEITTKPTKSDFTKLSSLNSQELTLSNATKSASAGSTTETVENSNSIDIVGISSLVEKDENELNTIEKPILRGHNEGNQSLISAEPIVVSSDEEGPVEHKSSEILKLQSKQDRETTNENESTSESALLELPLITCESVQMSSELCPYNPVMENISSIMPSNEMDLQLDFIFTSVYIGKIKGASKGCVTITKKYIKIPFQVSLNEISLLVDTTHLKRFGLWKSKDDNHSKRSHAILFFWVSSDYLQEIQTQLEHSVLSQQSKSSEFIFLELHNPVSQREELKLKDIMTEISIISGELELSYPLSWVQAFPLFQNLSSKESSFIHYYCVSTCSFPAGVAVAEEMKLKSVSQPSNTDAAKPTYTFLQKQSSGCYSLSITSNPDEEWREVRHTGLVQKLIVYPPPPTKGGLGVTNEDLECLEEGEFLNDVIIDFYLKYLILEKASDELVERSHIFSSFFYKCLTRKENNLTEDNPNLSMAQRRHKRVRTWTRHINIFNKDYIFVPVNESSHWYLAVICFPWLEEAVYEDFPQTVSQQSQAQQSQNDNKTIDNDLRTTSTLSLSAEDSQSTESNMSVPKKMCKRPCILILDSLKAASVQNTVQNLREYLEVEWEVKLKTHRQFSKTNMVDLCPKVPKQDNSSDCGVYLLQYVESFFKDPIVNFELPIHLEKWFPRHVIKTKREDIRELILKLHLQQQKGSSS

[3] = target: T3, Protein skinhead-1 (Caenorhabditis elegans, UniProt P34707); assay type: functional
T3 sequence (P34707 whole entry): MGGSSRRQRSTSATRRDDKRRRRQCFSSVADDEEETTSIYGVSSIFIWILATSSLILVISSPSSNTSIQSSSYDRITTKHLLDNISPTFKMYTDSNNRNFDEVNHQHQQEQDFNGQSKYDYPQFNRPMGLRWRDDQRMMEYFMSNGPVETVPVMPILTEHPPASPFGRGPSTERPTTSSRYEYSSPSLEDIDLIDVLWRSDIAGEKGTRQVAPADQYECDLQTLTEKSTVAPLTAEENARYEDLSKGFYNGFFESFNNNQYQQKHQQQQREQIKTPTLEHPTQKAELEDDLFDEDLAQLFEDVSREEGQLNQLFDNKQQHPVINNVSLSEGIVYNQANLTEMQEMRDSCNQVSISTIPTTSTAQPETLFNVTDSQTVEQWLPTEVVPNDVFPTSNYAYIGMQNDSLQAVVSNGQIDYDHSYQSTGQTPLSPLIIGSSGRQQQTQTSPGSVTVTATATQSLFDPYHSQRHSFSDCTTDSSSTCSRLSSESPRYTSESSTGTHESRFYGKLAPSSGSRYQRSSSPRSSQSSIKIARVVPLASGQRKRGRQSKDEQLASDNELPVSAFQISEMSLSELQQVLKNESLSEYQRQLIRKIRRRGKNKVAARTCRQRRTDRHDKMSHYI

[4] = target: T4, Sentrin-specific protease 6 (Homo sapiens, UniProt Q9GZR1); assay type: functional;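 further: Luminescence-based dose-response confirmatory assay of SENP6 inhibition, following up an ultra-high-throughput screen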
T4 sequence (Q9GZR1 whole entry): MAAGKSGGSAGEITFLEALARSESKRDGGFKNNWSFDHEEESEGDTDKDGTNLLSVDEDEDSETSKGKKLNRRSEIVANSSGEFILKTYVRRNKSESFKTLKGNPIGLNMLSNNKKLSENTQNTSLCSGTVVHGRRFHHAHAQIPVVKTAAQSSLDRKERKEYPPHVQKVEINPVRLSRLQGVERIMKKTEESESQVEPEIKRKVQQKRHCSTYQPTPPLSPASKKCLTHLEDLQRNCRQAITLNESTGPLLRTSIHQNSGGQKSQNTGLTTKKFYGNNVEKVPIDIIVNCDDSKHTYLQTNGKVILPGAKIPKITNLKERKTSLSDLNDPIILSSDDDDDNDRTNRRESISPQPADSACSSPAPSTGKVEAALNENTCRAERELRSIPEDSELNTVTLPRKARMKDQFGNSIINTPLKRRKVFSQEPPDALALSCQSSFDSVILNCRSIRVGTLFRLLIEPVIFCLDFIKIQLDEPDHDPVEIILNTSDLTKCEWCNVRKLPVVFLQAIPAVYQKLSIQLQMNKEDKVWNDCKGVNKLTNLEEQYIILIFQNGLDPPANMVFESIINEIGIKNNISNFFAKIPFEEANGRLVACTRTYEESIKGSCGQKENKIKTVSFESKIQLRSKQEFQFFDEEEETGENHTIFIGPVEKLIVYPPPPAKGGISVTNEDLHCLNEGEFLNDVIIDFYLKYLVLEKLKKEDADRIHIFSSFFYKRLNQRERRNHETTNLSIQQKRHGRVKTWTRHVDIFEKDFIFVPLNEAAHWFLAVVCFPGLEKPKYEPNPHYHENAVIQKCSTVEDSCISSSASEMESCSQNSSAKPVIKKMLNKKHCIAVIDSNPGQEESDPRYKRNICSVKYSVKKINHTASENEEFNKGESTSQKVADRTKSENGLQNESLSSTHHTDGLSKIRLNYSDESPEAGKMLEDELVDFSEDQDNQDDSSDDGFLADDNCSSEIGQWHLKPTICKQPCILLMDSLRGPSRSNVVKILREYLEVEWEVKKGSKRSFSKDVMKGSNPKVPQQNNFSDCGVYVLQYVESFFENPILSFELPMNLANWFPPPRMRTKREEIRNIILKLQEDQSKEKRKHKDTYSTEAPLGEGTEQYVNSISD

[5] = target: T5, Caspase-3 (Homo sapiens, UniProt P42574); assay type: functional;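 further: Dose-response selectivity test against caspase-3 for candidate inhibitors of sentrin-specific proteases (SENPs)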
T5 sequence (P42574 whole entry): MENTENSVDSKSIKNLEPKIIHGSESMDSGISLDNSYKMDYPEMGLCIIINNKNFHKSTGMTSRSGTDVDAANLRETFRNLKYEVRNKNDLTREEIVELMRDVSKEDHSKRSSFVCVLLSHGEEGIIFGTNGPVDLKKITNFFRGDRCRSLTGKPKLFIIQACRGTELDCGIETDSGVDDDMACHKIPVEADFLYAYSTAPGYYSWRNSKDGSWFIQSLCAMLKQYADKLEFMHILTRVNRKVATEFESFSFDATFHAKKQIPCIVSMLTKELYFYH

[6] = system: H9c2; test: cells; assay type: functional, cell-based; details: Rattus norvegicus, H9c2, Myocardium;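 further: confirmatory concentration-response retest of ultra-high-throughput screening hits for modulation of myocardial damage; cell death induced by hydrogen peroxide oxidative stress; compound pretreatment for 60 min then peroxide exposure for 2 h; potency is for protecting the cells against peroxide damage rather than for killing them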
[7] = target: Heat shock protein HSP 90-alpha (Homo sapiens, UniProt P07900); assay type: functional, organism-based
[8] = target: T6, Apoptotic protease-activating factor 1 (Homo sapiens, UniProt O14727); assay type: functional
T6 sequence (O14727 whole entry): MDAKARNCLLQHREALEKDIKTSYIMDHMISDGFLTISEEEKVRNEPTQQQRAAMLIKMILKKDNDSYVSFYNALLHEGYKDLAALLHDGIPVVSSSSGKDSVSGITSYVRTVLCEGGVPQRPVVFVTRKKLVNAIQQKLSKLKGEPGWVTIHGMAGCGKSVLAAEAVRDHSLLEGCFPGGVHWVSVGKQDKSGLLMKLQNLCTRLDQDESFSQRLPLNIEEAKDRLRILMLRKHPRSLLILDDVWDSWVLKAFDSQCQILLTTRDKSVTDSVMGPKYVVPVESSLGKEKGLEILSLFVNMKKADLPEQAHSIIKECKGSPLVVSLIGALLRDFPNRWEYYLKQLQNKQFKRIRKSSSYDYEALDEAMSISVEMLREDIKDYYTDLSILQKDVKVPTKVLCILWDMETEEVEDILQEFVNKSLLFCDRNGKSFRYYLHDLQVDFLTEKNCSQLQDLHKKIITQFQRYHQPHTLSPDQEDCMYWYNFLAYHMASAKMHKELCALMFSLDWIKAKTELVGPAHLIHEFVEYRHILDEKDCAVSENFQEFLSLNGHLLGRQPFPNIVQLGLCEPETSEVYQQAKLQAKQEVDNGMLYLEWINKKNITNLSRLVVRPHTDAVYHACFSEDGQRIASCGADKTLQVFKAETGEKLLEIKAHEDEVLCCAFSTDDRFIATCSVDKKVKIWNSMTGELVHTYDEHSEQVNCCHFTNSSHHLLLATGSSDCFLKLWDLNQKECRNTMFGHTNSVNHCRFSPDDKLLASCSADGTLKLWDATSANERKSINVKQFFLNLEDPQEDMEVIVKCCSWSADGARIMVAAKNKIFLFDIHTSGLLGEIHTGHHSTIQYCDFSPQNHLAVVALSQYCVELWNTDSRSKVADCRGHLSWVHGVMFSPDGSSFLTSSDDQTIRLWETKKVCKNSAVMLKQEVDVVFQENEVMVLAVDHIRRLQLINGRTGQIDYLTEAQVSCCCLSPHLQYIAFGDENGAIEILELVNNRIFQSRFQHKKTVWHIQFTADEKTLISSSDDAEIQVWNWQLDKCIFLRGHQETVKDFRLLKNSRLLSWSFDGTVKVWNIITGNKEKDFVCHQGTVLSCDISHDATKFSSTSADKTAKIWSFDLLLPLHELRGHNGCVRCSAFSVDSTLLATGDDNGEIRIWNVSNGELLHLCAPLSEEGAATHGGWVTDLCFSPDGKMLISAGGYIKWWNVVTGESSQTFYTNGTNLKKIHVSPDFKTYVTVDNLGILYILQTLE

[9] = Luminescence Cell-Based Dose Response HTS to Identify Inhibitors of 5'UTR Stem-Loop Driven Prion Protein mRNA Translation in H4 Neuroglioblastoma Cells. [Related pubchem assays: 1827 (Project Summary), 1813 (Primary HTS)]; assay type: functional
[10] = microbe, parasite or virus in culture; assay type: functional; details: Mycobacterium tuberculosis
[11] = inhibitors of intracellular T. cruzi replication, confirmation, NIH3T3 host cells, beta-gal luminescence (AID 2044); assay type: functional, cell-based;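 further: intracellular parasites grown in NIH/3T3 mouse fibroblasts as host cells; luminescent beta-galactosidase reporter signal from transgenic T. cruzi replicating inside host cells; inhibitors lower the luminescence signal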
[12] = inhibitors of SNCA 5'UTR-driven reporter translation, confirmation, H4 neuroglioma cells, luminescence (AID 1988); assay type: functional, cell-based
[13] = system: Vero; test: cells; assay type: functional; details: Chlorocebus sabaeus
[14] = cells; assay type: functional, cell-based
[15] = system: INS1; test: beta cell apoptosis inhibitors, cytokine rescue, dose response, luminescence, retest (AID 449756); assay type: functional, cell-based; details: Rattus norvegicus;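 further: cell death triggered by IL-1 beta plus TNF-alpha plus IFN-gamma mixture; protective hits raise ATP signal compared with cytokine alone wells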
[16] = cells; assay type: functional, cell-based; remark: listed apart in the source
[17] = cytotoxicity toward NIH3T3 fibroblasts, dose response, counter-screen, cell-based, ATP luminescence, mouse fibroblasts (AID 2010); assay type: functional;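 further: cells exposed to compound for about 90 hours before reading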
[18] = inhibitors of firefly luciferase expression or activity, dose response, H4 neuroglioma cells, luminescence (AID 1990); assay type: functional, cell-based

## CCCOc1ccc(C(=O)Nc2ccc(Cl)cn2)cc1
[1]
  IC50: 9.81 µM (active)
[2]
  IC50: 3.22 µM (active)
[3]
  IC50: 100 µM (inactive)
[4]
  IC50: 16.1 µM (active)
[5]
  IC50: 7.83 µM (active)

## NC(=O)COc1ccc2oc(=O)cc(-c3cc4ccccc4o3)c2c1
[6]
  IC50: > 79 µM (inactive)

## O=C1/C(=C\c2ccc(O)c(O)c2)SC(=S)N1Cc1ccccc1
[1]
  IC50: 10.7 µM (active)
[7]
  AC50: 3.11 µM (active)
[2]
  IC50: 13 µM (active)
[4]
  IC50: 11.5 µM (active)
[5]
  IC50: 67.5 µM (active)

## CN(Cc1ccc(F)cc1)C(=O)CNC(=O)c1cccs1
[8]
  IC50: > 100 µM (inactive)

## O=C(c1cc(O)nc2ccccc12)N1CCN(S(=O)(=O)c2ccc3ccccc3c2)CC1
[6]
  IC50: > 79 µM (inactive)

## O=C(NCCN1CCN(c2ccccc2F)CC1)c1cccn2c(=O)c3ccccc3nc12
[6]
  IC50: > 79 µM (inactive)

## O=C(N/N=C(\c1ccccc1)c1ccccn1)c1ccccc1Cl
[9]
  EC50: 4.49 µM (active)
[10]
  CC50: 5.75 µM (active)
[11]
  EC50: 0.852 µM (active)
[12]
  EC50: 0.472 µM (active)
[13]
  CC50: 6.17 µM (active)
[14]
  EC50: > 350 µM (not active)
[15]
  AC50: 1.27 µM (active)
[16]
  EC50: 12.1 µM (active)
[17]
  EC50: 5.45 µM (active)
[18]
  EC50: 2.03 µM (active)

## COc1ccc(-c2cc3ccc(OC)cc3cn2)cc1
[1]
  IC50: > 100 µM (inactive)
[2]
  IC50: 1.69 µM (active)
[4]
  IC50: > 100 µM (inactive)
[5]
  IC50: 15.8 µM (active)
